The source of these data is patent US8993756B2 (Merck Sharp & Dohme Corp., priority 2011, dated 2015).

Structures are written as SMILES.

The term IC50 denotes the concentration that gives 50% inhibition.

The target in test [1] is JAK2 (Homo sapiens (Human), UniProt O60674). The experiment in a line: Jak Biochemical HTRF Assay (JAK2). Particulars: recombinant GST-tagged catalytic domain, [ATP] 8.5 μM. How it is done: (§1) Biological Assays Jak Biochemical HTRF Assay Protocol
The ability of compounds to inhibit the activity of JAK1, JAK2, JAK3, and Tyk2 was measured using a recombinant purified GST-tagged catalytic domain for each enzyme (Invitrogen JAK1 #M4290, JAK2 #M4290, JAK3 #M4290, Tyk2 #M4290) in an HTRF format biochemical assay. […] The basic assay protocol is as follows: First, 250 nL of diluted compounds in DMSO were dispensed into the wells of a dry 384-well Black plate (Greiner #781076) using a Labcyte Echo 555 acoustic dispenser. Subsequent reagent additions employed an Agilent Bravo. Next, 18 μL of 1.11× enzyme and 1.11× substrate in 1× assay buffer (Invitrogen kinase buffer # PV3189, 2 mM DTT, 0.05% BSA) were added to the wells and shaken and then preincubated for 30 minutes at room temperature to allow compound binding to equilibrate. After equilibration, 2 μL of 10×ATP in 1× assay buffer was added to initiate the kinase reaction and the plates were shaken and then incubated at room temperature for 120 minutes. At the end of the incubation, 20 μL of 2× stop buffer (streptavidin-Dylight 650 (Thermo #84547B100 mL), Eu-tagged pY20 antibody (Perkin Elmer #AD0067), EDTA, HEPES, and Triton) was added to quench the reaction. Plates were shaken and centrifuged and then incubated 60 minutes at room temperature and then read on a Perkin Elmer Envision (λex=337 nm, λem=665 and 615 nm, TRF delay time=20 μs). HTRF signal=10,000*665 nm reading 615 nm reading. After normalization to untreated controls, the percent inhibition of the HTRF signal at each compound concentration was calculated. The plot of percent inhibition versus the log of compound concentration was fit with a 4-parameter dose response equation to calculate IC50 values.
On the technique in general: In TR-FRET formats the signal depends on donor and acceptor labels being close together.

Test [2] has as its target JAK3 (Homo sapiens (Human), UniProt P52333). The experiment in a line: Jak Biochemical HTRF Assay (JAK3). Particulars: recombinant GST-tagged catalytic domain, [ATP] 2.9 μM. How it is done:
as §1
The ability of compounds to inhibit the activity of JAK1, JAK2, JAK3, and Tyk2 was measured using a recombinant purified GST-tagged catalytic domain for each enzyme (Invitrogen JAK1 #M4290, JAK2 #M4290, JAK3 #M4290, Tyk2 #M4290) in an HTRF format biochemical assay. […] Subsequent reagent additions employed an Agilent Bravo. […] After equilibration, 2 μL of 10×ATP in 1× assay buffer was added to initiate the kinase reaction and the plates were shaken and then incubated at room temperature for 120 minutes. At the end of the incubation, 20 μL of 2× stop buffer (streptavidin-Dylight 650 (Thermo #84547B100 mL), Eu-tagged pY20 antibody (Perkin Elmer #AD0067), EDTA, HEPES, and Triton) was added to quench the reaction. […] After normalization to untreated controls, the percent inhibition of the HTRF signal at each compound concentration was calculated. The plot of percent inhibition versus the log of compound concentration was fit with a 4-parameter dose response equation to calculate IC50 values.

Chain of JAK2 (O60674 849-1124): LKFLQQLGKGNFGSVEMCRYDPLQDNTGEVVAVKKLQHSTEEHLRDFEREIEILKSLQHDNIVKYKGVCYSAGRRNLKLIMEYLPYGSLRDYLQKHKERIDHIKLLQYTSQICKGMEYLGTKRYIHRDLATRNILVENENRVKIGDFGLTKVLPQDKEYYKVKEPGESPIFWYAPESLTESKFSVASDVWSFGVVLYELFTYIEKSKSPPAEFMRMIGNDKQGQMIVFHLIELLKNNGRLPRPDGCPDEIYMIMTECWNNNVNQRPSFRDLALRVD
Chain of JAK3 (P52333 822-1111): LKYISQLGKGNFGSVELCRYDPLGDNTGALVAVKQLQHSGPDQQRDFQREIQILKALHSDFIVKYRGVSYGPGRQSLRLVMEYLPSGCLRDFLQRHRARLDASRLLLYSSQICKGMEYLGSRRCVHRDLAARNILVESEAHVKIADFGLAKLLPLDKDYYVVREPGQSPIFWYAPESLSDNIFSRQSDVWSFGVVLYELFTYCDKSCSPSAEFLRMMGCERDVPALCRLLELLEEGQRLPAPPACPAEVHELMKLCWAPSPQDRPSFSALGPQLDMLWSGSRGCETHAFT

Turning to `CCOC(=O)c1c[nH]c2ncnc(-c3cnn4c3CCCC4)c12` [Example 1-62, ethyl 4-(4,5,6,7-tetrahydropyrazolo[1,5-a]pyridin-3-yl)-7H-pyrrolo[2,3-d]pyrimidine-5-carboxylate], the IC50 in test [1] (given as range class) was more than 500 nM; in test [2] (given as range class) it was 10 to 500 nM.

Consider `CCOC(=O)c1c[nH]c2ncnc(-c3coc4ccccc34)c12` [Example 1-63, ethyl 4-(1-benzofuran-3-yl)-7H-pyrrolo[2,3-d]pyrimidine-5-carboxylate], for which the IC50 in test [1] (given as range class) is more than 500 nM; in test [2] (given as range class), 10 to 500 nM.

As to `CCOC(=O)c1c[nH]c2ncnc(-c3cccc4[nH]ncc34)c12` [Example 1-64, ethyl 4-(1H-indazol-4-yl)-7H-pyrrolo[2,3-d]pyrimidine-5-carboxylate], the IC50 in test [1] (given as range class) was more than 500 nM; in test [2] (given as range class), 10 to 500 nM.

Take `CCOC(=O)c1c[nH]c2ncnc(-c3ccc4c(c3)CNC4=O)c12` [Example 1-65, ethyl 4-(1-oxo-2,3-dihydro-1H-isoindol-5-yl)-7H-pyrrolo[2,3-d]pyrimidine-5-carboxylate]: the IC50 in test [1] (given as range class) and in test [2] (given as range class) was 10 to 500 nM each time.

In the case of `CCOC(=O)c1c[nH]c2ncnc(-c3ccc4c(c3)n(C)c(=O)n4C)c12` [Example 1-66, ethyl 4-(1,3-dimethyl-2-oxo-2,3-dihydro-1H-benzimidazol-5-yl)-7H-pyrrolo[2,3-d]pyrimidine-5-carboxylate], the IC50 in test [1] (given as range class) was more than 500 nM; in test [2] (given as range class), 10 to 500 nM.

Turning to `CCOC(=O)c1c[nH]c2ncnc(-c3ccc4nnn(C)c4c3)c12` [Example 1-67, ethyl 4-(1-methyl-1H-benzotriazol-6-yl)-7H-pyrrolo[2,3-d]pyrimidine-5-carboxylate], the IC50 in test [1] (given as range class) is more than 500 nM; in test [2] (given as range class) it was 10 to 500 nM.

With `CCOC(=O)c1c[nH]c2ncnc(-c3cccc4c3CCCNC4=O)c12` [Example 1-68, ethyl 4-(1-oxo-2,3,4,5-tetrahydro-1H-2-benzazepin-6-yl)-7H-pyrrolo[2,3-d]pyrimidine-5-carboxylate], the IC50 in test [1] (given as range class) was more than 500 nM; in test [2] (given as range class), 10 to 500 nM.

`CCOC(=O)c1c[nH]c2ncnc(-c3ccc4[nH]ncc4c3)c12` [Example 1-69, ethyl 4-(1H-indazol-5-yl)-7H-pyrrolo[2,3-d]pyrimidine-5-carboxylate]: the results for the IC50 in test [1] and in test [2] were 98 nM and 6.5 nM, respectively.

On to `CCOC(=O)c1c[nH]c2ncnc(-c3csc4ccccc34)c12` [Example 1-71, ethyl 4-(1-benzothiophen-3-yl)-7H-pyrrolo[2,3-d]pyrimidine-5-carboxylate], for which the results for the IC50 in test [1] (given as range class) and in test [2] (given as range class) were more than 500 nM and 10 to 500 nM, respectively.

Regarding `CCOC(=O)c1c[nH]c2ncnc(-c3ccc4[nH]nc(C(F)(F)F)c4c3)c12` [Example 1-72, ethyl 4-[3-(trifluoromethyl)-1H-indazol-5-yl]-7H-pyrrolo[2,3-d]pyrimidine-5-carboxylate], the IC50 in test [1] (given as range class) is more than 500 nM; in test [2] (given as range class), 10 to 500 nM.

On to `CCOC(=O)c1c[nH]c2ncnc(-c3cccc4c3CNC4=O)c12` [Example 1-73, ethyl 4-(1-oxo-2,3-dihydro-1H-isoindol-4-yl)-7H-pyrrolo[2,3-d]pyrimidine-5-carboxylate], for which the IC50 in test [1] (given as range class) was more than 500 nM; in test [2] (given as range class), 10 to 500 nM.

Turning to `CCOC(=O)c1c[nH]c2ncnc(-c3ccc4c(c3)CCN(C(=O)OC(C)(C)C)C4)c12` [Example 1-74, tent-butyl 6-[5-(ethoxycarbonyl)-7H-pyrrolo[2,3-d]pyrimidin-4-yl]-3,4-dihydroisoquinoline-2(1H)-carboxylate], the IC50 in test [1] (given as range class) is more than 500 nM; in test [2] (given as range class) it was 10 to 500 nM.

For the compound `CCOC(=O)c1c[nH]c2ncnc(-c3ccc4c(c3)C(=O)NC4)c12` [Example 1-75, ethyl 4-(3-oxo-2,3-dihydro-1H-isoindol-5-yl)-7H-pyrrolo[2,3-d]pyrimidine-5-carboxylate], the IC50 was more than 500 nM in test [1] (given as range class) and 10 to 500 nM in test [2] (given as range class).

`CCOC(=O)c1c[nH]c2ncnc(-c3ccc4cn[nH]c4c3)c12` [Example 1-76, ethyl 4-(1H-indazol-6-yl)-7H-pyrrolo[2,3-d]pyrimidine-5-carboxylate]: the IC50 in test [1] (given as range class) and in test [2] (given as range class) was 10 to 500 nM in each case.
